≈ marks a conversion by molar mass, not a printed value.
Conditions: buffer; pH 7.4; 200.0 µM

Structure (SMILES)	solubility kinetic [µg/mL]
CCN(CC)CCNC(=O)COc1ccc(OC)cc1	32 (≈ 114 µM)
Br.Cn1c(=N)n(CC(=O)c2ccc(F)cc2)c2ccccc21	> 54.6
COc1ccc(/C=C2\SC(=Nc3ccccc3OC)NC2=O)cc1	1.7 (≈ 4.99 µM)
CC(=O)Nc1ccc(S(=O)(=O)Nc2nccs2)cc1	> 44.6
C=CCN(c1ccccc1OC)S(=O)(=O)c1cccc(C(=O)OCC(=O)N2CC(C)OC(C)C2)c1 (centres undefined)	52.7 (≈ 105 µM)
CCN(CC)C(=O)N1CCN(S(=O)(=O)c2ccccc2)CC1	> 48.8
Cc1ccc(NC(=O)CCn2cnc3ccccc3c2=O)c(C)c1	13.7 (≈ 42.6 µM)
CN(C)c1nc(/C=C(\C#N)C(N)=O)c(Cl)n1-c1ccc(F)cc1	8.3 (≈ 24.9 µM)
COc1cc(Br)c(Br)cc1N	14.7 (≈ 52.3 µM)
CC1(c2ccccc2)CC(C)(C)N2C(=O)Cc3cccc1c32 (centres undefined)	6 (≈ 20.6 µM)
CCN(CC)C(=O)C(C)N(C#N)c1nc(Cl)nc(N(C)C)n1 (centres undefined)	> 48.9
O=C(NCCCn1ccnc1)c1ccc(-c2cccc(Cl)c2Cl)o1	48.1 (≈ 132 µM)
Cc1csc(NC(=S)NC(=O)c2ccccc2)n1	1 (≈ 3.61 µM)
CCc1noc(C)c1C(=O)Nc1nc(-c2ccc(OC)cc2)cs1	2.3 (≈ 6.7 µM)
Cc1noc(C)c1CSc1ccccc1C(=O)O	> 39.5
COc1ccc(N2C(=O)CSC2c2cccc(F)c2)cc1 (centres undefined)	29.2 (≈ 96.3 µM)
Cc1oc(C(C)(C)C)cc1C(=O)N1CCN(c2ccc(C(F)(F)F)cn2)CC1	6.4 (≈ 16.2 µM)
CC(=O)N1CCCSC1=Nc1ccccc1	> 35.1
COc1ccc(CNc2ncccn2)cc1OC	> 36.8
COc1ccc(NC(=O)c2ccc3[nH]c(C)c(C)c3c2)c(OC)c1	1.9 (≈ 5.86 µM)
CCOC(=O)c1c(C)noc1-c1ccc(Br)o1	< 0.6
COc1ccc(N(C(=O)C(C)C)S(=O)(=O)c2ccc3ccccc3c2)cc1	< 0.8
CCC(=O)Nc1c(-c2ccc(C)cc2)nc2ccc(C)cn12	30.4 (≈ 104 µM)
COc1ccc(NC(=O)c2c(N)no[n+]2[O-])c(OC)c1	1.5 (≈ 5.35 µM)

Structure (SMILES)	solubility kinetic [µg/mL]
Cc1csc(SCC(=O)NC(C)c2ccc(F)cc2)n1 (centres undefined)	38.8 (≈ 125 µM)
COc1ccc(CCC(=O)NCCc2cnc[nH]2)cc1	35.2 (≈ 129 µM)
Cc1cccc(OCCn2c(=O)oc3ccc(C)cc32)c1	3.8 (≈ 13.4 µM)
CCc1ccc(S(=O)(=O)NCc2cccnc2)cc1	31.8 (≈ 115 µM)
Cc1nc2ccc([N+](=O)[O-])cc2c(=O)n1Cc1ccc(Cl)cc1	0.6 (≈ 1.82 µM)
COCCN1CC(C(=O)NCc2ncccc2C)CCC1=O (centres undefined)	> 45.8
COc1ccc(NC(=S)N2CCCC2)cc1OC	> 40
Cc1[nH]c2ccc(C(=O)NCCCN3CCCC3)cc2c1C	> 44.9
C=CCNC(=O)NC(=O)c1csc([N+](=O)[O-])c1	2 (≈ 7.84 µM)
CC(C)C(=O)Nc1nc(-c2ccc([N+](=O)[O-])cc2)cs1	2.6 (≈ 8.92 µM)
O=C(NCCN1CCOCC1)c1ccccc1Cl	> 40.3
O=C(/C=C/c1cccc(F)c1)NCc1ccc2c(c1)OCO2	3.3 (≈ 11 µM)
c1ccc(-c2csc3ncnc(NCc4ccccn4)c23)cc1	40.1 (≈ 126 µM)
Cc1cccc(C(=O)OCC(=O)NC(C)C2CC3CCC2C3)c1O (centres undefined)	4.1 (≈ 12.4 µM)
N#Cc1ccc(S(=O)(=O)NC2CCCCNC2=O)cc1 (centres undefined)	> 44
CCOc1ccccc1NC(=O)c1ccc2[nH]c(C)c(C)c2c1	2.8 (≈ 9.08 µM)
CC(SCc1cc(=O)n2c([nH]c3ccccc32)c1C#N)C(=O)O (centres undefined)	21.7 (≈ 66.3 µM)
O=C(O)COCC(=O)N1CCN(C(c2ccccc2)c2ccccc2)CC1	> 55.3
COc1ccc(CNc2ccc([N+](=O)[O-])cn2)cc1	3 (≈ 11.6 µM)
O=C(O)CSC(=S)N1CC2CC(C1)c1cccc(=O)n1C2 (centres undefined)	> 48.7
FC(F)(F)c1ccccc1NC1=NCCCS1	> 39
CC1CC(C)CN(C(=O)C(Cc2ccccc2)n2cccc2)C1 (centres undefined)	4.4 (≈ 14.2 µM)
O=C1OC(Nc2ccc(F)c([N+](=O)[O-])c2)c2ccccc21 (centres undefined)	42.6 (≈ 148 µM)
Cc1ccccc1CNc1ncnc2cc(Cl)ccc12	0.5 (≈ 1.76 µM)

Structure (SMILES)	solubility kinetic [µg/mL]
Cc1cccc(C(=O)Nc2ccc(O)cc2C(=O)O)c1	> 40.7
Oc1ccccc1-c1nc(NCc2cccnc2)c2ccccc2n1	< 0.2
CCCCCCn1c(N2CCCC2)nc2c1c(=O)[nH]c(=O)n2C	> 47.9
O=[N+]([O-])c1ccc(S(=O)(=O)c2cccc(C(F)(F)F)c2)nc1	4.4 (≈ 13.2 µM)
Cl.O=C(O)C1=CCCNC1	> 24.5
C[N+]1(C)CCCC(OC(=O)C(O)(c2ccccc2)c2ccccc2)C1.[Br-] (centres undefined)	> 63.1
S=C1NCN(Cc2cccnc2)CN1c1cccc(Cl)c1	> 47.8
COc1cc(OC)c(OC)cc1/C=C1/C(=O)N=C(N)N1C	34.5 (≈ 118 µM)
CC1CCN(CC(O)COc2ccc(C(=O)c3ccccc3)cc2)CC1 (centres undefined)	> 53
CCCCN(C)Cc1cc(=O)oc2ccc3ccccc3c12	1.8 (≈ 6.09 µM)
CSc1ncc(CN2CCCC(C(=O)c3cccc(Cl)c3)C2)cn1 (centres undefined)	29 (≈ 80.1 µM)
Nc1ccc(-c2ncc(-c3ccccc3)o2)cc1	4.3 (≈ 18.2 µM)
COc1ccc(Cl)cc1/C=C1/C(=O)ON=C1C	29 (≈ 115 µM)
CC1CN(C(=O)c2ccccc2NS(=O)(=O)c2ccc(Cl)cc2)CC(C)O1 (centres undefined)	> 61.3
CCOC(=O)c1cc(/C(C)=N/OC(=O)c2ccc(Cl)cc2)on1	0.6 (≈ 1.78 µM)
CCc1cccc(NC(=O)C2CCCN2C(=O)Nc2ccc(C)cc2)c1 (centres undefined)	1.2 (≈ 3.41 µM)
CC(C)CCN(C(=O)c1ccccn1)c1c(N)n(Cc2ccccc2)c(=O)[nH]c1=O	56.9 (≈ 140 µM)
CCOc1cccc(CNc2nnnn2C)c1	> 35
N#Cc1nc(-c2ccc(F)cc2)oc1N1CCC(C(N)=O)CC1	12.4 (≈ 39.5 µM)
COc1ccccc1C(=O)Nc1ccc(Nc2ccccc2)cc1	< 0.3
CC1CCN(C(=O)c2cc(-c3ccco3)on2)CC1	37.7 (≈ 145 µM)
COC(=O)c1ccc(NC(=O)c2cc(Cl)ccc2OC)cc1	< 0.7
CC(C)C1CC(C(=O)Nc2ccccc2)C(=O)O1 (centres undefined)	34.9 (≈ 141 µM)
O=C1c2cc([N+](=O)[O-])ccc2-c2ncccc21	7.4 (≈ 32.7 µM)

Structure (SMILES)	solubility kinetic [µg/mL]
N#C/C(=C\Nc1ccc2c(c1)OCCO2)C(=O)NCc1ccco1	4.6 (≈ 14.1 µM)
COc1ccc(CN(C)C(=O)c2ccc3ccccc3n2)cc1F	> 48.7
CCC(C)[C@H](NC(=O)N1CCCCC1)C(=O)OC (some centres undefined)	> 38.5
Cc1ccc(C(=O)NCc2ccco2)o1	> 30.8
FC(F)Oc1cccc(NC(=S)N2CCN(c3ccccn3)CC2)c1	2.3 (≈ 6.31 µM)
COc1ccc(Cl)cc1NC(=O)COC(=O)c1ccc(Br)o1	2.6 (≈ 6.69 µM)
Cc1cc(C(=O)NCCc2ccc(Cl)cc2)c(C)o1	31.1 (≈ 112 µM)
O=C(NCC1CCCO1)c1ccc(COc2ccccc2)o1 (centres undefined)	> 45.2
Cc1nnc(SCC(=O)Nc2ccccc2)n(N)c1=O	> 43.7
CCOC(=O)c1cc2c(=O)c3ccccc3oc2nc1C	2.1 (≈ 7.41 µM)
COCCNC(=O)COCc1cc(-c2ccc3c(c2)OCO3)on1	> 50.1
COC(=O)c1cc(C(=O)OC)n(Cc2ccc(F)cc2)c1C	10.6 (≈ 34.7 µM)
Cc1cccc(N2C(=O)CC(n3ccnc3)C2=O)c1C (centres undefined)	32.9 (≈ 122 µM)
CC(C)[C@H](NC(=O)c1ccccc1)C(=O)NC1CCCCCCC1	1.8 (≈ 5.45 µM)
CCCCn1c(=O)[nH]c(=O)c2c1nc(-c1ccccn1)n2CC	18.7 (≈ 59.7 µM)
Cc1c(C=O)c2ccccc2n1CCOc1ccccc1	6.2 (≈ 22.2 µM)
CCOC(=O)COn1c(=O)c(-c2ccc(F)cc2)[n+]([O-])c2ccccc21	3.8 (≈ 10.6 µM)
CC(C)(C)C(=O)N1CCN(C(=O)c2ccco2)CC1	> 39.6
Cc1ccc(N(CC(=O)Nc2c(C)cccc2C)S(C)(=O)=O)cc1	35.1 (≈ 101 µM)
c1ccc(-c2nccc(-c3ccc4c(c3)OCO4)n2)cc1	< 0.3
Cc1nc(SCCO)c([N+](=O)[O-])[nH]1	> 30.5
O=C(COC(=O)c1ccc[nH]c1=O)Nc1ccc2c(c1)OC(F)(F)O2	> 52.8
O=C(Nc1scc(-c2ccccc2)c1C(=O)O)c1ccccc1Cl	52.6 (≈ 147 µM)
O=C(COC(=O)c1ccccn1)NC(=O)c1ccccc1	35 (≈ 123 µM)

Structure (SMILES)	solubility kinetic [µg/mL]
Cn1c(N)c(C(=O)COC(=O)Cc2ccc(Cl)c(Cl)c2)c(=O)n(C)c1=O	25.7 (≈ 64.2 µM)
Cc1cc(NC(=O)CN2C(=O)c3ccccc3S2(=O)=O)no1	32.7 (≈ 102 µM)
CCOC(=O)c1csc(NC(C)=O)n1	> 32.1
COC(=O)/C(C#N)=C/c1c(Oc2cccc(C)c2C)nc2ccccn2c1=O	1 (≈ 2.66 µM)
COc1cc(C(=O)Nc2nc(C)cc(C)n2)cc(OC)c1OC	45.4 (≈ 143 µM)
CC1(C(=O)OCC(=O)Nc2ccc(Cl)cn2)CC1(Cl)Cl (centres undefined)	> 50.6
Cc1ccc(C(=O)NC(=O)CSc2nncn2C)cc1	> 43.6
NC(=O)Cn1cnc2nc3n(c2c1=O)CCC3	> 35
CC(Sc1ccccn1)C(=O)Nc1ccc2c(c1)OCO2 (centres undefined)	39 (≈ 129 µM)
COc1ccccc1N(C)S(=O)(=O)c1ccc(C(=O)Nc2cc(F)ccc2C)cc1	7.5 (≈ 17.5 µM)
NC(=O)C1CCN(C(=O)c2cc(-c3ccc(Cl)s3)nc3ccccc23)CC1	9.4 (≈ 23.5 µM)
Cc1ccccc1N(CC(=O)N1CCCCCC1)S(C)(=O)=O	> 48.7
O=C(c1ccc2ccccc2c1)N1CCN(c2ccccn2)CC1	47.5 (≈ 150 µM)
Cc1cc(C)c(S(=O)(=O)c2ccccc2F)c(=O)[nH]1	> 42.2
O=C1NC(=O)/C(=C\c2cn(Cc3ccccc3F)c3ccccc23)N1	0.8 (≈ 2.39 µM)
NC(=O)c1ccc(NC(=O)COC(=O)C2COc3ccccc3O2)cc1 (centres undefined)	> 53.5
O=S(=O)(c1ccccc1)N1CCc2ccccc21	2 (≈ 7.71 µM)
CN(C(=O)COC(=O)c1ccc(Cl)nc1)C1CCS(=O)(=O)C1 (centres undefined)	> 52
NC(=O)C1CCN(C(=O)CCn2c(=O)oc3ccccc32)CC1	> 47.6
Cc1ccc(S(=O)(=O)NC2CCCCCCC2)cc1	24.3 (≈ 86.3 µM)
CCCCOc1ccc(C(=O)NCC(=O)NNC(=O)c2ccco2)cc1	> 53.9
c1cncc(C2Nc3cccc4cccc(c34)N2)c1	> 37.1
CCC(NC(=S)NCc1ccc(F)cc1)c1ccc(C)cc1 (centres undefined)	0.8 (≈ 2.53 µM)

— PubChem BioAssay AID1996
